# Experimental data published in US4145554A, “3-Nitropyrazole derivatives” (Eli Lilly and Company, priority 1977, dated 1979).
# Where two headings read alike, the source gives them in different places.
# Key:
# large crabgrass = assay: herbicidal activity, application to plants; format: in vivo; conditions: applied to foliage of growing plant at 1 lb./acre
# Excerpt: The herbicidal compounds of our invention have shown the ability to control undesired plants at levels as low as 1 lb./acre. Herbicidal activity is obtained when the 3-nitropyrazole herbicide is applied to the plants to be controlled in the conventional manner, by direct application as a spray or dry formulation to the plant or its supporting soil.
# Streptococcus sp. 80 = assay: in vitro tube dilution test (MIC); format: cell-based; conditions: Streptococcus sp. 80, tube dilution; read-out: MIC
# Excerpt: Other compounds of our invention have also been tested in the tube dilution test and shown to have in vitro activity against a number of microorganisms. The table below reports tests of a number of exemplary compounds against exemplary microorganisms. The compounds are identified by their numbers in the listing above. The data are reported as the MIC in micrograms per milliliter against the named exemplary microorganisms.
# Vibrio coli 3811 = assay: in vitro tube dilution test (MIC); format: cell-based; conditions: Campylobacter coli; Vibrio coli 3811, tube dilution; read-out: MIC
# [1] = system: Staphylococcus aureus sp. 1130; assay: in vitro tube dilution test (MIC); format: cell-based; conditions: read-out: MIC
# Salmonella dublin = assay: in vitro tube dilution test (MIC); format: cell-based; conditions: Salmonella enterica; Salmonella dublin, tube dilution; read-out: MIC
# Mycoplasma gallisepticum = assay: in vitro tube dilution test (MIC); format: cell-based; conditions: Mycoplasmoides gallisepticum; Mycoplasma gallisepticum, tube dilution; read-out: MIC
# Method in brief: (§1)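 Standard tube dilution test; MIC reported as micrograms of compound per milliliter.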
# Escherichia coli = assay: in vitro tube dilution test (MIC); format: cell-based; conditions: tube dilution, read-out: MIC
# Method in brief: as §1
# H. meleagridis = assay: Blackhead in poultry, turkeys; format: in vivo
# Description: One- to three-week-old chicks and turkey poults were obtained from homogeneous source flocks and allocated into treatment groups. Some groups were held as infected, untreated controls, and other groups were treated with 3-nitropyrazoles by administering the compounds in the birds' feed. Various concentrations of the pyrazoles were administered to determine the least concentration which protected the birds. A few days after the administration of medicated feed began, all of the birds were challenged by rectally administering a suspension of at least 5,000 H. meleagridis protozoa per chick. The challenge organisms had been originally obtained from infected chickens, and were grown in vitro to provide a supply of organisms for testing.
# The birds were held for about seven days after the challenge was administered, during which time the administration of pyrazole-medicated feed was continued. Then all of the chicks, including the untreated, infected controls, were sacrificed and necropsied. The cecum and the liver of each bird were examined for characteristic H. meleagridis lesions.
# For each compound, the lowest feed concentration which gave an active response is indicated. While feed consumption data were not taken during the tests, the birds ate at such a rate that a feed concentration of 0.02 percent is equivalent to a treatment rate of about 10 mg./kg./day.
# Pseudomonas sp. = assay: in vitro tube dilution test (MIC); format: cell-based
# Excerpt: (§2) Our compound, 1-(2-hydroxyethyl)-3-nitro-4-pyrazolecarboxamide, has been extensively tested in vitro to determine the range of microorganisms against which it is active. The table of data below reports the minimum inhibitory concentration (MIC) at which the compound is effective in controlling a variety of microorganisms in a standard tube dilution test system. The MIC is reported as micrograms of compound per milliliter.
# (§3) The other preferred compounds of our invention have also been thoroughly tested in the in vitro tube dilution test.
# Mycoplasma hyorhinis = assay: in vitro tube dilution test (MIC); format: cell-based
# Excerpt: as §2, §3
# Salmonella pullorum Ill. = assay: in vitro tube dilution test (MIC); format: cell-based; conditions: Salmonella enterica
# Excerpt: as §2, §3
# [2] = system: Salmonella typhimurium 1335; assay: in vitro tube dilution test (MIC); format: cell-based; conditions: Salmonella enterica; Salmonella typhimurium 1335, tube dilution
# Excerpt: as §2, §3
# [3] = system: Salmonella heidelburg 1593; assay: in vitro tube dilution test (MIC); format: cell-based; conditions: Salmonella heidelburg 1593, tube dilution
# Excerpt: as §2, §3
# [4] = system: Mycoplasma gallisepticum 38502; assay: in vitro tube dilution test (MIC); format: cell-based; conditions: Mycoplasmoides gallisepticum; Mycoplasma gallisepticum 38502, tube dilution
# Excerpt: as §3
# [5] = system: Staphylococcus aureus 3055; assay: in vitro tube dilution test (MIC); format: cell-based; conditions: Staphylococcus aureus 3055, tube dilution
# Excerpt: as §3
# Escherichia coli 0127 = assay: in vitro tube dilution test (MIC); format: cell-based; conditions: Escherichia coli 0127, tube dilution
# Excerpt: as §3
# avian E. coli = assay: Colibacillosis in chickens, medicated feed; format: in vivo
# Erwinia amylovora = assay: Fire blight of pear, in vivo greenhouse test
# Description: An in vivo test was conducted against the fire blight organism, Erwinia amylovora. Plants infected with E. amylovora were sprayed with aqueous dispersions containing 100 ppm. and 500 ppm. of the test compounds. […] The compounds are identified below by their compound numbers in the above listing.
# Salmonella typhimurium = assay: Salmonellosis in chickens, single injection to day-old chicks; format: in vivo; conditions: Salmonella enterica, TYPHIMURIUM, 168 h; single injection of 60 mg./kg.; seven days; read-out: Survival (converted)
# Method in brief: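 Five day-old chicks per group received one injection of compound at 60 mg./kg., then were challenged next day by subcutaneous S. typhimurium at a dose lethal to most or all untreated controls. Read-out is survivor count, pooled over repeat groups, with untreated challenged controls run in each batch.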
# S. typhimurium = assay: Salmonella typhimurium in chickens, medicated feed; format: in vivo, chicks; conditions: 200 gm./ton feed; for Avg. Wt.: surviving chicks
# P. multocida [6] = assay: Mice infected with P. multocida, compound injected subcutaneously; format: in vivo
# Description: A second test was conducted in much the same way, except that the 3-nitropyrazole was injected to the treated mice subcutaneously at the same time they were infected with the P. multocida culture.
# Pasteurella multocida = assay: in vitro tube dilution test (MIC); format: cell-based; conditions: tube dilution, read-out: MIC
# Method in brief: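 Standard tube dilution test; MIC is the lowest compound concentration controlling growth, given in μg/mL.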
# P. multocida [7] = assay: Mice infected with P. multocida, compound in drinking water; format: in vivo; conditions: 7 days
# Description: Some of the 3-nitropyrazoles were also administered to mice infected with P. multocida. Tests were conducted in which the pyrazoles were administered both by injection and in the drinking water.
# The table below reports results of tests in which the compound was administered in the water. Groups of 10 standardized white mice were segregated, and each mouse was infected by injecting a broth culture of P. multocida subcutaneously. The administration of the test compounds was begun at the same time the mice were infected by adding a known amount of the test compound to the drinking water of the mice. One group of infected control mice received no treatment. The mice were observed, and the test was concluded at the end of 7 days. The number of mice in each group which survived the P. multocida infection was recorded.
# [8] = system: Trypanosoma cruzi (BHC/10 strain); assay: use against Trypanosoma cruzi in rodents; format: in vivo; conditions: 12.5 mg./kg. for 10 days
# Description: Some 3-nitropyrazoles have been used against Trypanosoma cruzi in rodents. The 3-nitro-1-vinyl-4-pyrazolecarboxamide killed 91 percent of T. cruzi of the BHC/10 strain when administered at 12.5 mg./kg. for 10 days.
# [9] = Staphylococcus aureus sp. 1130, tube dilution
# [10] = 100 gm./ton, further test, about 5 weeks of age
# [11] = 200 gm./ton, further test, about 5 weeks of age
# [12] = 300 gm./ton feed, about 5 weeks old, 10^-2 dilution challenge, first test
# [13] = Staphylococcus aureus, SP.1130, Staphyloccocus 1130, tube dilution
Compound,MIC (Streptococcus sp. 80) [µg/mL],MIC (Vibrio coli 3811) [µg/mL],"MIC [1, 9] [µg/mL]",MIC (Salmonella dublin) [µg/mL],MIC (Mycoplasma gallisepticum) [µg/mL],MIC (Escherichia coli) [µg/mL],MIC (Pseudomonas sp.) [µg/mL],MIC (Mycoplasma hyorhinis) [µg/mL],MIC (Salmonella pullorum Ill.) [µg/mL],MIC [2] [µg/mL],MIC [3] [µg/mL],MIC [4] [µg/mL],Avg. Wt. (avian E. coli; [10]) [gm.],E. coli Lesions (avian E. coli; [10]),Mortality (avian E. coli; [10]),Avg. Wt. (avian E. coli; [11]) [gm.],E. coli Lesions (avian E. coli; [11]),Mortality (avian E. coli; [11]),Percent Control of fire blight (Erwinia amylovora; 100 ppm.) [%],Percent Control of fire blight (Erwinia amylovora; 500 ppm.) [%],also measured
"CCn1cc(C#N)c([N+](=O)[O-])n1 [Compound 1, 1-ethyl-3-nitro-4-pyrazolecarbonitrile]",100,12.5,100,100,> 50,100,–,–,–,–,–,–,–,–,–,–,–,–,–,–,control of large crabgrass (large crabgrass): kills large crabgrass
"C=CCn1cc(C(N)=O)c([N+](=O)[O-])n1 [Compound 16, 1-allyl-3-nitro-4-pyrazolecarboxamide]",–,3.12,–,6.25,–,–,12.5,50,< 1.56,6.25,25,50,1112,40/40,16/40,1266,31/40,11/40,100,60,"Active Level (lowest feed concentration which gave an active response) (H. meleagridis): .02%; MIC [5]: 10 µg/mL; MIC (Escherichia coli 0127): 100 µg/mL; E. coli Lesions (avian E. coli; [12]): 16/30; Mortality (avian E. coli; [12]): 0/30; Wt. (avian E. coli; [12]): 1090 gm.; MIC [1, 13]: 6.25 µg/mL; responders at 60 mg/kg (Salmonella typhimurium): 100%; Survival (S. typhimurium; Test B): 26/36; Avg. Wt. (S. typhimurium; Test B): 88 gm.; Survival (S. typhimurium; Test C): 25/48; Avg. Wt. (S. typhimurium; Test C): 64 gm."
"CC(=O)OCCn1cc(C(N)=O)c([N+](=O)[O-])n1 [Compound 80, 2-(4-carbamoyl-3-nitropyrazol-1-yl)ethyl acetate]",–,12.5,–,12.5,–,–,25,50,< 1.56,12.5,12.5,25,1219,38/40,10/40,1308,31/40,6/40,33,50,"MIC [5]: 10 µg/mL; MIC (Escherichia coli 0127): 100 µg/mL; Survival (P. multocida [6]; 2.5 mg./kg. subcutaneous): 4/10; Survival (P. multocida [6]; 5.0 mg./kg. subcutaneous): 3/10; Survival (P. multocida [6]; 10.0 mg./kg. subcutaneous): 8/10; Survival (P. multocida [6]; 25.0 mg./kg. subcutaneous): 9/10; E. coli Lesions (avian E. coli; [12]): 9/30; Mortality (avian E. coli; [12]): 1/30; Wt. (avian E. coli; [12]): 1139 gm.; MIC (Pasteurella multocida): 25 µg/mL; MIC [1, 13]: 3.12 µg/mL; responders at 60 mg/kg (Salmonella typhimurium): 70%; Survival (S. typhimurium; Test C): 29/48; Avg. Wt. (S. typhimurium; Test C): 67 gm.; Survival (P. multocida [7]; 0.1 gm./gal. in drinking water): 9/10; Survival (P. multocida [7]; 0.2 gm./gal. in drinking water): 6/10"
"C=Cn1cc(C(N)=O)c([N+](=O)[O-])n1 [Compound 81, 3-nitro-1-vinyl-4-pyrazolecarboxamide]",25,25,1.56,1.56,1.56,1.56,–,–,–,–,–,–,1109,23/40,5/40,918,20/40,6/40,100,60,MIC (Pasteurella multocida): 1.56 µg/mL; percent of T. cruzi killed [8]: 91%
